Data taken from publication PMC9246869, “Allosteric inhibition of PPM1D serine/threonine phosphatase via an altered conformational state” (Nature Communications, 2022).
Values joined by “and” are separate entries in the source; they are usually repeats but may differ in a detail not shown here. Equal values may be shown once. Read-outs that look alike come from different tables or passages of the source.

Legend:
Type in all cases: binding
PPM1DΔhinge [1] = biological target: T1, PPM1DΔhinge (Homo sapiens, UniProt O15297, DEL155-163/G166S/M164G/T165G); assay: Differential scanning fluorimetry (DSF); details: PPM1D Dhinge, in °C (unit assumed)
T1 construct: PPM1D1–154-GGS-167–420 (PPM1D∆hinge); His(6)-SUMO (N, cleaved yes); made in house; host or cells: E. coli BL21 (DE3)
T1 sequence (O15297 with tags, fused parts or gaps DEL155-163/M164G/T165G/G166S): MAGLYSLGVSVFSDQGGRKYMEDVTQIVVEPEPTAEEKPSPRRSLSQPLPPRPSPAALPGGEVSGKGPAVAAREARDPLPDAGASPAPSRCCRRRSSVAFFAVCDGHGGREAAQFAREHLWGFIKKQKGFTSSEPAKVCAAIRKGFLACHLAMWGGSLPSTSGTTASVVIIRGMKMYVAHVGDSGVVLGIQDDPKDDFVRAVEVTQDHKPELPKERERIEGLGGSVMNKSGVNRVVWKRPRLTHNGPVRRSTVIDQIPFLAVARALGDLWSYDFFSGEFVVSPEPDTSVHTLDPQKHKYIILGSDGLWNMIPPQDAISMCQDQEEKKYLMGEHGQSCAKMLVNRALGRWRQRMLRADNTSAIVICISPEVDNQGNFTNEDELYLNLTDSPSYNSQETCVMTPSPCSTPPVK
Procedure: (§1) The purified protein constructs were mixed in the assay buffer containing 25 mM HEPES pH 7.5, 10 mM MgCl2, 150 mM NaCl. The sample preparation for the DSF assay included incubating the protein constructs (final concentration 0.2–0.4 mg/mL) with either DMSO alone (control) or with 40 µM GSK2830371 for 30 min before the addition of the Sypro orange dye (final concentration 10×). The final reaction volume of 10 µL was pipetted into a 384 multi-well clear plate (Light Cycler 480), sealed using a foil and spun down at 1000 × g for 2 min. The fluorescence emission intensity of the Sypro Orange dye was monitored in a LightCycler-480 instrument by running the Protein Melt program. The program was run in a continuous acquisition mode from 25 °C to 95 °C with a ramp rate of 0.06 °C/s (with 10 acquisitions/°C). The data (first derivative of the fluorescence signal as a function of temperature) was analyzed using the LightCycler-480 software for measuring the Tm values with and without the compound. A separate control with buffer alone and buffer with compound was run in the same plate to subtract out the potential interactions of the buffer components and/or the compound with the dye.

PPM1DΔflap [2] = biological target: T2, PPM1DΔflap (Homo sapiens, UniProt O15297, DEL219-231/DEL235-284/E287S/S285N); assay: Differential scanning fluorimetry (DSF); details: PPM1D Dflap, individual trials; in °C (unit assumed)
T2 construct: PPM1D1–218-GGSNGS-288–420 (PPM1D∆flap); His(6)-SUMO (N, cleaved yes); made in house; host or cells: E. coli BL21 (DE3)
T2 sequence (O15297 with tags, fused parts or gaps DEL219-231/DEL235-284/S285N/E287S): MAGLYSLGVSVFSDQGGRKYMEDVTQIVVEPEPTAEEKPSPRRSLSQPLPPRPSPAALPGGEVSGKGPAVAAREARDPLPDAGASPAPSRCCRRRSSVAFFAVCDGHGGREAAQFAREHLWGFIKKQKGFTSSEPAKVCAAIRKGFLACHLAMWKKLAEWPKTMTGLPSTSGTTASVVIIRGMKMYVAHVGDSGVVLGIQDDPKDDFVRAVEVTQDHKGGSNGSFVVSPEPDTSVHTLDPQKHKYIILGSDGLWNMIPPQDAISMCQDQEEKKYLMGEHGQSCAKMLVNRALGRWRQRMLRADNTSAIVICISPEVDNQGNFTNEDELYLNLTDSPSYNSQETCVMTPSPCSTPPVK
Procedure: as §1

PPM1DΔhinge [3] = biological target: T1, PPM1DΔhinge; assay: Isothermal titration calorimetry (ITC); details: Sup Fig 5C
Procedure: (§2) Assessments of the analog of GSK2830371 (analog 1d) binding to wild-type and mutant proteins were conducted using an Auto-iTC200 microcalorimeter (Malvern) (see section on synthesis of analog 1d below). The protein was dialyzed extensively into 25 mM HEPES (pH 7.4), 150 mM NaCl, 10 mM MgCl2 and 1 mM TCEP. The dialyzed protein was used to prepare fresh working solutions of protein (20 µM) and analog 1d (200 µM) in 2% DMSO (v/v) in the same buffer. Titrations were performed at 25 °C and consisted of a single initial injection of 0.4 µL, followed by 19 injections of 2 µL of compound into a sample cell containing wild-type or mutant PPM1D, with an interval of 150 s between successive injections. The reference power and stirring speed were set at […] and 1000 RPM, respectively. Heat of dilution and mixing were obtained from injections of analog 1d into ITC buffer lacking protein and subtracted from the integrated data before curve fitting. Thermodynamic data were analyzed using Origin 7.0 software and fitted by non-linear regression to the model for a single binding site.

PPM1DΔflap [4] = biological target: T2, PPM1DΔflap; assay: Isothermal titration calorimetry (ITC); details: Sup Fig 5A
Procedure: as §2

[5] = ITC stoichiometry, average of 2 trials

## Cc1ncc(Cl)cc1NCc1ccc(C(=O)N[C@@H](CC2CCCC2)C(=O)NC2CC2)s1 [GSK2830371]
PPM1DΔhinge [1]; average of 4 trials
  DSF melting temperature with GSK2830371, Average: 55.5129
PPM1DΔhinge [1]; individual trials
  DSF melting temperature with GSK2830371: 55.7617 and 55.9693 and 55.1773 and 55.1434
PPM1DΔflap [2]
  DSF melting temperature with GSK2830371: 63.0141 and 62.619 and 62.5754 and 62.548
PPM1DΔhinge [3]; [5]
  N Average: 0.8785
PPM1DΔhinge [3]; ITC, average of 2 trials
  DH Average: -3.817 kcal/mol
  DS Average: 13.65 cal/mol/deg
PPM1DΔhinge [3]; ITC, individual trials
  DH: -3.047 kcal/mol and -4.587 kcal/mol
  DS: 16.6 cal/mol/deg and 10.7 cal/mol/deg
PPM1DΔflap [4]; [5]
  N Average: 1.11
PPM1DΔflap [4]; ITC, average of 2 trials
  DH Average: -14.43 kcal/mol
  DS Average: -12.15 cal/mol/deg
PPM1DΔflap [4]; ITC, average of 2 trials, read-out: Kd Average
  Kd: 11.9 nM
PPM1DΔflap [4]; ITC, individual trials
  DH: -14.15 kcal/mol and -14.71 kcal/mol
  DS: -11.3 cal/mol/deg and -13 cal/mol/deg
PPM1DΔflap [4]; ITC, individual trials, read-out: Kd
  Kd: 12.2 nM and 11.5 nM
